One experiment concerns CCRF-CEM. In words: Antiproliferative activity against human CCRF-CEM cells after 24 hrs by WST1 assay. Format: functional, cell-based. Background: Tetrazolium dyes change colour on reduction, which living cells bring about.
In the next experiment the test system is RPMI-8226. In words: Growth inhibition of human RPMI8226 cells at 1500 mg/L after 48 hrs by MTT assay relative to control. Format: functional. The settings on record: RPMI-8226, 48 h, read-out: GI.
Experiment [1] has as its system HT-29. Kind of experiment: Growth inhibition of human HT-29 cells at 2 ml/L after 36 hrs by MTT assay relative to control. It is filed as functional.
Experiment [2] has as its system HT-29. Kind of experiment: Growth inhibition of human HT-29 cells at 2 mg/ml by MTT assay relative to control. Format: functional. The settings on record: read-out: GI.
Another experiment concerns HOS. Kind of experiment: Growth inhibition of human HOS cells at 0.8 mg/ml after 48 hrs by MTT assay relative to control. Format: functional. As to conditions: read-out: GI.
The test system of a further experiment is HeLa. Kind of experiment: Induction of apoptosis in human HeLa cells at 100 ug/ml after 48 hrs by Annexin V-FITC/propidium iodide staining based flow cytometry relative to control. Format: functional. (In general: A flow cytometer gives signals particle by particle.)
A further experiment has as its system C-33-A. In words: Induction of apoptosis in human C33A cells at 100 ug/ml after 48 hrs by Annexin V-FITC/propidium iodide staining based flow cytometry relative to control. It is filed as functional.

pIC50: −log10 of the molar value.

Usually pIC50 stands for −log10 of the IC50, conventionally taken in molar units. Read a low pIC50 as a high IC50. In turn, `O=C1CCC[C@@H]2[C@H]3CCCN4CCC[C@@H](CN12)[C@@H]34` [MATRINE] showed a pIC50 in the experiment on CCRF-CEM of 1.93. For the same molecule, in the experiment with RPMI-8226, the inhibition of growth at 1500 µg/mL was determined as 39.4%. Also, the “growth inhibition (GI)” value in the experiment with HT-29 [1] is on record as 22.06%. Besides, the inhibition of growth at 2000 µg/mL with HT-29 [2] worked out at 52.9%. In the experiment on HOS, the inhibition of growth at 800 µg/mL stood at 10%. The Activity with HeLa is listed as 38.41%; in the experiment on C-33-A it was 28.91%.

The record behind these values is ChEMBL document CHEMBL4325859, “Research advances on anticancer activities of matrine and its derivatives: An updated overview” (Eur J Med Chem, 2019).
